For assay [1], the target named is T1, NLRP3 (Homo sapiens (Human), UniProt Q96P20). As to the kind of experiment: THP-1 cells pyroptosis assay (LPS + nigericin, resazurin read-out). The class given is cell-based. As to conditions: 1 μg/ml LPS, 5 μM nigericin. A digest of the protocol: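 LPS-primed (1 μg/ml) human THP-1 cells in serum-free RPMI were exposed to compound (8-point half-log series, top dose as printed "10M") for 3 h at 37 °C, then to nigericin 5 μM for 1 h. Remaining viability was read by resazurin (100 μM, 1-2 h) fluorescence, and IC50 came from 4-parameter variable-slope regression.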
(In general: Alamar Blue is a resazurin reagent that responds to reducing activity.)

Assay [2] addresses T1, NLRP3. As to the kind of experiment: Human whole blood IL1β release assay (LPS + nigericin). Type of assay: cell-based. The note with it: human whole blood, 1 μg/ml LPS, nigericin, IL-1β release; read-out: HWB IC50. On the procedure: For systemic delivery, the ability to inhibit NLRP3 when the compounds are present within the bloodstream is of great importance. For this reason, the NLRP3 inhibitory activity of a number of compounds in human whole blood was investigated in accordance with the following protocol.
Human whole blood in Li-heparin tubes was obtained from healthy donors from a volunteer donor panel. • 1. Plate out 80 μl of whole blood containing 1 μg/ml of LPS in 96-well, clear bottom cell culture plate (Corning #3585) • 2. Add 10 μl compound (8 points half-log dilution with 10 μM top dose) or vehicle (DMSO 0.1% FAC) to the appropriate wells • 3. Incubate for 3 hrs at 37° C., 5% CO2 • 4. Add 10 μl nigericin (Sigma #N7143) ([…]) to all wells • 5. Incubate for 1 hr at 37° C., 5% CO2 • 6. At the end of the incubation period, spin plates at 30×g for 5 mins to pellet cells and remove 20 μl of supernatant and add to 96-well v-bottom plates for IL-1β analysis (note: these plates containing the supernatants can be stored at −80° C. to be analysed at a later date) • 7. IL-1β was measured according to the manufacturer protocol (Perkin Elmer-AlphaLisa IL-Kit A[220F-5000) • 8. IC50 data is fitted to a non-linear regression equation (log inhibitor vs response-variable slope 4-parameters)

Structures can show the parent of a compound that is named as a salt.

As usually defined, the IC50 is the concentration needed to halve the response being measured.

T1 sequence (Q96P20 whole entry): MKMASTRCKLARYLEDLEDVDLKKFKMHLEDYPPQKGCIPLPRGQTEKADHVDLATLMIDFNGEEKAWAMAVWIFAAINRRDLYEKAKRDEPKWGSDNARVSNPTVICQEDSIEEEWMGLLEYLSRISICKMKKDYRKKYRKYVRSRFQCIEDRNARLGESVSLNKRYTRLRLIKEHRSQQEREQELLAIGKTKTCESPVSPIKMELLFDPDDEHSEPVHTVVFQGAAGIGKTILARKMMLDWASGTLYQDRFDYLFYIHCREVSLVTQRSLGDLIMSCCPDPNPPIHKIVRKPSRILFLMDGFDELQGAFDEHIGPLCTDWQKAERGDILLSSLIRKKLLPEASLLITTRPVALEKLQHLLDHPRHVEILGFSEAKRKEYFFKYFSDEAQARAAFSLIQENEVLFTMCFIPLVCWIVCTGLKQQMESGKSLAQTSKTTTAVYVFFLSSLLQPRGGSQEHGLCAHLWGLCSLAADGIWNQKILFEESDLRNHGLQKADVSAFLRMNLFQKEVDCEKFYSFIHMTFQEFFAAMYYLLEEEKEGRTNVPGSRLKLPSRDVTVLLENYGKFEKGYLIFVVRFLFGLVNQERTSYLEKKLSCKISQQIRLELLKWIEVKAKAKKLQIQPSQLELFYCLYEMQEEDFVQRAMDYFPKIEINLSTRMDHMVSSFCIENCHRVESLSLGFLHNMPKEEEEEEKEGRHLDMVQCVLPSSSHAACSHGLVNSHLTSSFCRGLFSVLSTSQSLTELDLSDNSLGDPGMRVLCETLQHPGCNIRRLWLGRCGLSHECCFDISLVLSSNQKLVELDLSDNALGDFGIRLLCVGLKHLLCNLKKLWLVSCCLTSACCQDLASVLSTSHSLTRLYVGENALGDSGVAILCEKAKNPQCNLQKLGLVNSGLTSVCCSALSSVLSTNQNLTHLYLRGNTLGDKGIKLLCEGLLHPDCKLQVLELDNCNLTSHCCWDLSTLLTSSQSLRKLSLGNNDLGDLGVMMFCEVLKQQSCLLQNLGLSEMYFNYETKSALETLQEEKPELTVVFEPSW

Take `O=C(Nc1c2c(cc3c1CCC3)CCC2)NS(=O)(=O)C1CN(CC2CCCO2)C1` (stereo not shown) [Example 145, N-((1,2,3,5,6,7-Hexahydro-s-indacen-4-yl)carbamoyl)-1-((tetrahydrofuran-2-yl)methyl)azetidine-3-sulfonamide, potassium salt]: the figures for the IC50 on NLRP3 [1] and at NLRP3 [2] were below 1000 nM and 1000 to 10000 nM, respectively.
In the case of `O=C(Nc1c2c(cc3c1CCC3)CCC2)NS(=O)(=O)C1CN(CCO)C1` [Example 152, 1-(2-Hydroxyethyl)-N-((1,2,3,5,6,7-hexahydro-s-indacen-4-yl)carbamoyl)azetidine-3-sulfonamide, potassium salt], the IC50 at NLRP3 [1] and at NLRP3 [2] was below 1000 nM each time.
Regarding `COc1cc(-c2cc(F)cc(C(C)C)c2NC(=O)NS(=O)(=O)C2CN(C(C)C)C2)ccn1` [Example 158, N-((4-Fluoro-2-isopropyl-6-(2-methoxypyridin-4-yl)phenyl)carbamoyl)-1-isopropylazetidine-3-sulfonamide], the IC50 on NLRP3 [1] and on NLRP3 [2] was below 1000 nM throughout.
For `COc1cc(-c2ccc3c(c2NC(=O)NS(=O)(=O)C2CN(C(C)C)C2)CCC3)ccn1` [Example 159, 1-Isopropyl-N-((5-(2-methoxypyridin-4-yl)-2,3-dihydro-1H-inden-4-yl)carbamoyl)azetidine-3-sulfonamide], the IC50 at NLRP3 [1] and on NLRP3 [2] was below 1000 nM each time.
On to `COc1cc(-c2cc(F)cc(C(C)C)c2NC(=O)NS(=O)(=O)C2CN(C3CCC3)C2)ccn1` [Example 162, 1-Cyclobutyl-N-((4-fluoro-2-isopropyl-6-(2-methoxypyridin-4-yl)phenyl)carbamoyl)azetidine-3-sulfonamide], for which the IC50 on NLRP3 [1] and at NLRP3 [2] was below 1000 nM each time.
Regarding `COc1cc(-c2ccc3c(c2NC(=O)NS(=O)(=O)C2CN(C4CCC4)C2)CCC3)ccn1` [Example 163, 1-Cyclobutyl-N-((5-(2-methoxypyridin-4-yl)-2,3-dihydro-1H-inden-4-yl)carbamoyl)azetidine-3-sulfonamide], the IC50 on NLRP3 [1] and on NLRP3 [2] was below 1000 nM in each case.
On to `CCN1CC(S(=O)(=O)NC(=O)Nc2c(-c3ccnc(OC)c3)ccc3c2CCC3)C1` [Example 167, 1-Ethyl-N-((5-(2-methoxypyridin-4-yl)-2,3-dihydro-1H-inden-4-yl)carbamoyl)azetidine-3-sulfonamide], for which the IC50 on NLRP3 [1] and at NLRP3 [2] was below 1000 nM throughout.
Turning to `COc1cc(-c2ccc3c(c2NC(=O)NS(=O)(=O)C2CN(Cc4cccnc4)C2)CCC3)ccn1` [Example 170, N-((5-(2-Methoxypyridin-4-yl)-2,3-dihydro-1H-inden-4-yl)carbamoyl)-1-(pyridin-3-ylmethyl)azetidine-3-sulfonamide], the IC50 at NLRP3 [1] and on NLRP3 [2] was 1000 to 10000 nM throughout.
Turning to `CC(C)c1cc(F)cc(-c2ccnc(C#N)c2)c1NC(=O)NS(=O)(=O)c1ccc(=O)n(C(C)C)c1` [Example 172, N-((2-(2-cyanopyridin-4-yl)-4-fluoro-6-isopropylphenyl)carbamoyl)-1-isopropyl-6-oxo-1,6-dihydropyridine-3-sulfonamide], the IC50 at NLRP3 [1] and at NLRP3 [2] was below 1000 nM each time.
With `COc1cc(-c2cc(F)cc(C(C)C)c2NC(=O)NS(=O)(=O)c2ccc(=O)n(C(C)C)c2)ccn1` [Example 173, N-((4-Fluoro-2-isopropyl-6-(2-methoxypyridin-4-yl)phenyl)carbamoyl)-1-isopropyl-6-oxo-1,6-dihydropyridine-3-sulfonamide], the IC50 on NLRP3 [1] and on NLRP3 [2] was below 1000 nM in each case.
`CC(C)n1cc(S(=O)(=O)NC(=O)Nc2c3c(cc4c2CCC4)CCC3)ncc1=O` [Example 181, N-((1,2,3,5,6,7-Hexahydro-s-indacen-4-yl)carbamoyl)-4-isopropyl-5-oxo-4,5-dihydropyrazine-2-sulfonamide, sodium salt]: the IC50 on NLRP3 [1] and at NLRP3 [2] was below 1000 nM each time.

For the origin of these results see US20250115591A1, “NOVEL SULFONAMIDE CARBOXAMIDE COMPOUNDS” (INFLAZOME LIMITED, priority 2017, published 2025).
